Measurements published in ChEMBL document CHEMBL3046264, “Juvenile hormone activity of ethyl 4-(2-aryloxyhexyloxy)benzoates with precocious metamorphosis-inducing activity” (Biosci Biotechnol Biochem, 2007).
Calls of active or inactive are those of the source. The calls are words filed in the database; no cut-off is given here.

Assays:
Bombyx mori [1] = experiment: Induction of precocious metamorphosis in allatectomized fourth-instar larvae of Bombyx mori Shunei x Shougetsu assessed as juvenile hormone activity at 10 to 40 ug applied topically to dorsal abdomen of larvae; assay type: functional, organism-based
Bombyx mori [2] = experiment: Induction of precocious metamorphosis in allatectomized fourth-instar larvae of Bombyx mori Shunei x Shougetsu assessed as juvenile hormone activity at 1 ug applied topically to dorsal abdomen of larvae; assay type: functional, organism-based

Row | SMILES | Activity (Bombyx mori [1]) | Activity (Bombyx mori [2])
1 | CCCCC(COc1ccc(C(=O)OCC)cc1)Oc1ccccc1 (stereo unspecified) | Active | inactive
2 | CCOC(=O)c1ccc(OCC(CC)OC(=O)C(C)(C)C)cc1 (stereo unspecified) |  | Active
3 | COC(C)(C)CCC[C@H](C)C/C=C/C(C)=C/C(=O)OC(C)C |  | Active
4 | CCCCC(COc1ccc(C(=O)OCC)cc1)Oc1ccc(C)nc1 (stereo unspecified) | Active | inactive
